Measured values published in US11572590B2, “Methods for evaluating tumor cell spheroids using 3D microfluidic cell culture device” (Dana-Farber Cancer Institute, Inc., priority 2017, dated 2023).
Like-named read-outs stand apart in the source and are kept apart here.

Legend:
Experiment in all cases: SelectScreen Kinase Profiling, single point inhibition and IC50 for off-target kinases
Format in all cases: biochemical
[1] = molecular target: off-target kinases (Homo sapiens, UniProt O00238); conditions: BMPR1B (ALK6), LanthaScreen Binding
off-target kinases (Homo sapiens, UniProt O00238), sequence (O00238 14-502): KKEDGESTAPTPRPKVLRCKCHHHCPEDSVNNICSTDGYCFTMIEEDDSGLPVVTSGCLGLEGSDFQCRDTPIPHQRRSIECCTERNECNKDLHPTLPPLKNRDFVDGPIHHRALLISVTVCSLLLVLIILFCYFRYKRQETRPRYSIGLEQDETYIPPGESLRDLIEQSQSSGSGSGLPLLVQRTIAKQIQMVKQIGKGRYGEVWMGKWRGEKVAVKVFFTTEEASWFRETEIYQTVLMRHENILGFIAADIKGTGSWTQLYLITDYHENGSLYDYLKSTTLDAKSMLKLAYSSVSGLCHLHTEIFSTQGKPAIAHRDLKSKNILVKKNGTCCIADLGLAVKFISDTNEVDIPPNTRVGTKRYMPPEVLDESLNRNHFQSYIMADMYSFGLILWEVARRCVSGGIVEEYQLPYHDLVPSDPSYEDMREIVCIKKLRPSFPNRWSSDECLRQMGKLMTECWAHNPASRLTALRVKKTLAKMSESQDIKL

[2] = molecular target: off-target kinases (Homo sapiens, UniProt P23458); conditions: JAK1, ZLYTE, ATP Km app
off-target kinases (Homo sapiens, UniProt P23458), sequence (P23458 whole entry): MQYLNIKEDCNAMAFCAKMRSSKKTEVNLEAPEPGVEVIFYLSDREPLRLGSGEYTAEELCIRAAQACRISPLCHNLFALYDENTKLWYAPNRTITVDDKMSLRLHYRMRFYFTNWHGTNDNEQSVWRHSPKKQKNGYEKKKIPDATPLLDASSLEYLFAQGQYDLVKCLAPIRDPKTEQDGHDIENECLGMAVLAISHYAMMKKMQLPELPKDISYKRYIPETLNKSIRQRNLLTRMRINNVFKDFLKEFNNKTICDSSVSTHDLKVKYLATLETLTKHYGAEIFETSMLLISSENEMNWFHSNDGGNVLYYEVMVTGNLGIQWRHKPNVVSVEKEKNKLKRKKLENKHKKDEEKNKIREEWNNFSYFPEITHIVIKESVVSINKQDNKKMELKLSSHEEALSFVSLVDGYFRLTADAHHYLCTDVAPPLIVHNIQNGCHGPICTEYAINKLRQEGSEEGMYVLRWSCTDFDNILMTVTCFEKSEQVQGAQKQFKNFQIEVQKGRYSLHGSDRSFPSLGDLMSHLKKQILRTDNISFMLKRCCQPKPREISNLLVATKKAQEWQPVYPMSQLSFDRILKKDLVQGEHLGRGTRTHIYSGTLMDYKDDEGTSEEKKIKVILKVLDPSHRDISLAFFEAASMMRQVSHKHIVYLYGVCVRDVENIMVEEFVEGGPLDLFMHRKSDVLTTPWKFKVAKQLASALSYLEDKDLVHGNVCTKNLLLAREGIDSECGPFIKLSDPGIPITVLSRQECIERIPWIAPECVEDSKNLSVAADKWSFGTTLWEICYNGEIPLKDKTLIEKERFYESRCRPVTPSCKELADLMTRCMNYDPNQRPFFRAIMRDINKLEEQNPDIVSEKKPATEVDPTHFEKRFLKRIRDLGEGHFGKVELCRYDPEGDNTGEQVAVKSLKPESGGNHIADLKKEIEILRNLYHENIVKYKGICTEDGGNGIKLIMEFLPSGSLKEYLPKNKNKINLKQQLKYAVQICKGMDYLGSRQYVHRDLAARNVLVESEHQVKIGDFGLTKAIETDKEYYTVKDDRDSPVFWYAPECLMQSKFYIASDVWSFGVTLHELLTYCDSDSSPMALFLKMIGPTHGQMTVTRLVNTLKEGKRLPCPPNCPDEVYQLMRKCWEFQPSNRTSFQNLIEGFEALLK

[3] = molecular target: off-target kinases (Homo sapiens, UniProt Q02763, R849W); conditions: TEK (TIE2) R849W, mutant y, LanthaScreen Binding
off-target kinases (Homo sapiens, UniProt Q02763, R849W), sequence (Q02763 23-1124 R849W): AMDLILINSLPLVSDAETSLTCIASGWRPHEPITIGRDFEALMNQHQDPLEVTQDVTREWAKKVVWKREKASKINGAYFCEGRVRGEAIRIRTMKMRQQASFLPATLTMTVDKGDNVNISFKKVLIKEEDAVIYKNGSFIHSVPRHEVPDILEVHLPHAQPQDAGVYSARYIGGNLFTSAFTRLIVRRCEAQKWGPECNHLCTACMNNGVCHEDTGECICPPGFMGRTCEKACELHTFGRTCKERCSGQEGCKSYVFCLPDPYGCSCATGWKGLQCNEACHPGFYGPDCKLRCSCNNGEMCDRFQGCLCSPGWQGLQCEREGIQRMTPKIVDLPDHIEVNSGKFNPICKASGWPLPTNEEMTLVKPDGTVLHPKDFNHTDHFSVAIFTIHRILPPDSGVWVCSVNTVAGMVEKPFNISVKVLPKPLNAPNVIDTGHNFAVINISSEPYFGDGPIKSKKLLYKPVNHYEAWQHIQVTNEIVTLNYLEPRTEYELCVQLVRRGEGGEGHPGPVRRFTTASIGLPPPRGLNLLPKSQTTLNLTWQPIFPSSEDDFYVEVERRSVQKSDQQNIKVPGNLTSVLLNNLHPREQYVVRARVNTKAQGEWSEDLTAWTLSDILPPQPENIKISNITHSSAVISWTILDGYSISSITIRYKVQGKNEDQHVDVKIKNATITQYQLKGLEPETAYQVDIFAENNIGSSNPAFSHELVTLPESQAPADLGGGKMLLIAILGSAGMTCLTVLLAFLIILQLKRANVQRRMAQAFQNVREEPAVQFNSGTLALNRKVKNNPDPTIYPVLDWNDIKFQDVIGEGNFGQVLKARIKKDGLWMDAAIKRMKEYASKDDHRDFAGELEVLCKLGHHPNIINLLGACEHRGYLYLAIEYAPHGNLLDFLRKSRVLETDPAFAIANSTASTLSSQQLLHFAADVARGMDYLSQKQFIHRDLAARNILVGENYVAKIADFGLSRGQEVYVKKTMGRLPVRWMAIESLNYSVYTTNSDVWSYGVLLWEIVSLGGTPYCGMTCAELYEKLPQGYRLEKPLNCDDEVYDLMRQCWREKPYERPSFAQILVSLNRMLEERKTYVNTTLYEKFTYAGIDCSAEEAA

[4] = molecular target: T1, off-target kinases (Homo sapiens, UniProt Q09013); conditions: DMPK, LanthaScreen Binding
T1 sequence (Q09013 1-629): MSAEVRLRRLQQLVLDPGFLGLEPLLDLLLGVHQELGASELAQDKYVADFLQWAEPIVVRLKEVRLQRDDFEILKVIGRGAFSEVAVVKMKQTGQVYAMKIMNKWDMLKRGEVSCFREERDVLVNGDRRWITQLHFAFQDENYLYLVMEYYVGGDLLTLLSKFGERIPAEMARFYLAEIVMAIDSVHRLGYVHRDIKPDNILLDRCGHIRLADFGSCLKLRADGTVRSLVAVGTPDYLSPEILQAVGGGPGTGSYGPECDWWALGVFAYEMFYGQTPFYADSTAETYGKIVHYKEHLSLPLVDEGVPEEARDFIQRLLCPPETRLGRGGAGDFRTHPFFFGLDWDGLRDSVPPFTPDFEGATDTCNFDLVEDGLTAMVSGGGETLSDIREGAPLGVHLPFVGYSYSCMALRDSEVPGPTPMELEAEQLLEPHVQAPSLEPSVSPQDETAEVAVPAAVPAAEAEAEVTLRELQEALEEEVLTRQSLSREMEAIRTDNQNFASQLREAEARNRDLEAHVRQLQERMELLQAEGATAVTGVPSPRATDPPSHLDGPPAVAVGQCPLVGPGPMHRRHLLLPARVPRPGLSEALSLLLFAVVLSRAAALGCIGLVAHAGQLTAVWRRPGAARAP

[5] = molecular target: off-target kinases (Homo sapiens, UniProt Q16512); conditions: PKN1 (PRK1); Cmpd1 1000 μM; ATP Km app; ZLYTE
off-target kinases (Homo sapiens, UniProt Q16512), sequence (Q16512 whole entry): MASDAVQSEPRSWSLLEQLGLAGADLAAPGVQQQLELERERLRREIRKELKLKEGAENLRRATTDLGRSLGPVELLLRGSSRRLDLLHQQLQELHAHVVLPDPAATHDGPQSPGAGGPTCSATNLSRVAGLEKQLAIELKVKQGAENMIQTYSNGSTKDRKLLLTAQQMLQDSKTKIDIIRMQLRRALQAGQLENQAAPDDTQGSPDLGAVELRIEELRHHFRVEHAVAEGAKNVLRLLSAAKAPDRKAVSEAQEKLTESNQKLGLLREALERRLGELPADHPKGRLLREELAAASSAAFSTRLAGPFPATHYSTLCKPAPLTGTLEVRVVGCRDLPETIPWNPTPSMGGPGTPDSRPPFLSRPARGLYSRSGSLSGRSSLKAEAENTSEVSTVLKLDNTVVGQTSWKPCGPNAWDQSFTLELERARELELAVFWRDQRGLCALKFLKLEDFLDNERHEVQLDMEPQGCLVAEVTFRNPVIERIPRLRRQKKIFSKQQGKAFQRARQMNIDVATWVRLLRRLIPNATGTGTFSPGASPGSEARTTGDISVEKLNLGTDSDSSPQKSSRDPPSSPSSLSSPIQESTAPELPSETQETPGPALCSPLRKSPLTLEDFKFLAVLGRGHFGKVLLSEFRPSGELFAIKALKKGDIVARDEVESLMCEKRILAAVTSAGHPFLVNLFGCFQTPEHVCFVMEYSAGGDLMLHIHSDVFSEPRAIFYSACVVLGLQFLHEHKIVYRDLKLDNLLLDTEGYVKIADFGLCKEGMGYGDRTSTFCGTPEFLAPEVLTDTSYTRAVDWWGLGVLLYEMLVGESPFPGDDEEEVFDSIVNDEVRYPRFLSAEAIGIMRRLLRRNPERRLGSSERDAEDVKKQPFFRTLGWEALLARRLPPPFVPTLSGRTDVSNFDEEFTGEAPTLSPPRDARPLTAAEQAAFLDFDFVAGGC

[6] = molecular target: T2, off-target kinases (Homo sapiens, UniProt Q6PHR2); conditions: ULK3, LanthaScreen Binding
T2 sequence (Q6PHR2 1-472): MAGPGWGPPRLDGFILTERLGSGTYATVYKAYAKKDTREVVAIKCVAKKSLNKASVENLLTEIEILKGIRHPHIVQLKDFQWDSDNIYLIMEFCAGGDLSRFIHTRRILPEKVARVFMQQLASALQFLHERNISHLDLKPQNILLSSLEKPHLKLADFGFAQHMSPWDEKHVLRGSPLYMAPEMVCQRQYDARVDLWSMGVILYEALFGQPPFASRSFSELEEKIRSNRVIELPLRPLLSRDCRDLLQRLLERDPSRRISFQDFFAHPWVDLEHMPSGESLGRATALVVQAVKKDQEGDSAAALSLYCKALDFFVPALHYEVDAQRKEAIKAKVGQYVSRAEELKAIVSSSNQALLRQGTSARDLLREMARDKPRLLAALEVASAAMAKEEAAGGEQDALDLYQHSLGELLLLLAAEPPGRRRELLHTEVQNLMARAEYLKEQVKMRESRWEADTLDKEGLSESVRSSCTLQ

N#Cc1cc(-c2ncnc(Nc3ccc(N4CCN(C5COC5)CC4)cc3)n2)ccc1OC1CCOCC1 [Compound 1, 5-(4-((4-(4-(oxetan-3-yl)piperazin-1-yl)phenyl)amino)-1,3,5-triazin-2-yl)-2-((tetrahydro-2H-pyran-4-yl)oxy)benzonitrile]
inhibition ([1]; read-out: % Inhibition 1): 56% | inhibition ([1]; read-out: % Inhibition 2): 60% | inhibition ([1]; read-out: % Inhibition Avg): 58% | inhibition ([2]; read-out: % Inhibition 1): 11% | inhibition ([2]; read-out: % Inhibition 2): 10% | inhibition ([2]; read-out: % Inhibition Avg): 10% | inhibition ([3]; read-out: % Inhibition 1): 40% | inhibition ([3]; read-out: % Inhibition 2): 41% | inhibition ([3]; read-out: % Inhibition Avg): 41% | inhibition ([4]; read-out: % Inhibition 1): 76% | inhibition ([4]; read-out: % Inhibition 2): 79% | inhibition ([4]; read-out: % Inhibition Avg): 78% | % Inhibition 1 [5]: −6% | % Inhibition 2 [5]: −4% | % Inhibition Avg [5]: −5% | inhibition ([6]; read-out: % Inhibition 1): 101% | inhibition ([6]; read-out: % Inhibition 2): 104% | inhibition ([6]; read-out: % Inhibition Avg): 102%
